# Read-outs that look alike come from different tables or passages of the source.
# Columns and labels:
# [1] = test system: patients with heart failure and a left ventricular ejection fraction ≥40%
# [2] = test system: preclinical cardiorenal models; conditions: preclinical cardiorenal models which develop heart failure; cited from earlier work
# [3] = No SGLT2i Use at baseline, n = 2,610
# [4] = SGLT2i Use at baseline, n = 393
smiles,measurement,setting,value
"CCOc1ncc(C)c2c1[C@H](c1ccc(C#N)cc1OC)C(C(N)=O)=C(C)N2 [finerenone, (4S)-4-(4-cyano-2-methoxyphenyl)-5-ethoxy-2,8-dimethyl-1,4-dihydro-1,6-naphthyridine-3-carboxamide]","Absolute risk reduction, primary outcome",[1]; HFimpEF (history of LVEF<40%),9.2 per 100 py
same,"Absolute risk reduction, primary outcome",[1]; LVEF consistently 40% (no HFimpEF),2.5 per 100 py
same,"All-cause death, HR (95% CI) finerenone vs placebo",[1]; No SGLT2i Use at baseline,"0.94 (0.82, 1.07)"
same,"Renal composite endpoint, HR (95% CI) finerenone vs placebo",[1]; No SGLT2i Use at baseline,"1.43 (0.98, 2.08)"
same,"Total worsening HF events, RR (95% CI) finerenone vs placebo",[1]; No SGLT2i Use at baseline,"0.83 (0.71, 0.97)"
same,"Renal composite endpoint, Rate (per 100 py)",[1]; [3],0.8 per 100 py
same,"Total worsening HF events, Rate (per 100 py)",[1]; [3],13.0 per 100 py
same,"All-cause death, HR (95% CI) finerenone vs placebo",[1]; SGLT2i Use at baseline,"0.90 (0.64, 1.27)"
same,"Renal composite endpoint, Rate (per 100 py)",[1]; [4],1.3 per 100 py
same,"Total worsening HF events, Events",[1]; [4],194
same,"Total worsening HF events, Rate (per 100 py)",[1]; [4],22.0 per 100 py
same,Mean systolic blood pressure lower than in the placebo group,[1]; at 6 months,3.4 mm Hg
same,"All-cause death, event rate per 100 PY","[1]; bilirubin Tertile 2 0.5-0.6 mg/dL, finerenone N = 970",6.4 per 100 PY
same,"All-cause death, event rate per 100 PY","[1]; bilirubin Tertile 3 ≥0.7 mg/dL, finerenone N = 1,009",6.6 per 100 PY
same,Hyperkalemia leading to Hospitalization - no.,"[1]; both, human, in vivo",24
same,Number of subjects with a treatment-emergent SAE: Acute kidney injury,"[1]; both, human, in vivo",54
same,Number of subjects with a treatment-emergent SAE: Anaemia,"[1]; both, human, in vivo",34
same,Number of subjects with a treatment-emergent SAE: Angina pectoris,"[1]; both, human, in vivo",17
same,Number of subjects with a treatment-emergent SAE: Angina unstable,"[1]; both, human, in vivo",38
same,Number of subjects with a treatment-emergent SAE: Atrial fibrillation,"[1]; both, human, in vivo",77
same,Number of subjects with a treatment-emergent SAE: Cardiac failure,"[1]; both, human, in vivo",18
same,Number of subjects with a treatment-emergent SAE: Cellulitis,"[1]; both, human, in vivo",17
same,Number of subjects with a treatment-emergent SAE: Chest pain,"[1]; both, human, in vivo",23
same,Number of subjects with a treatment-emergent SAE: Chronic obstructive pulmonary disease,"[1]; both, human, in vivo",18
same,Number of subjects with a treatment-emergent SAE: Fall,"[1]; both, human, in vivo",15
same,Number of subjects with a treatment-emergent SAE: Femur fracture,"[1]; both, human, in vivo",15
same,Number of subjects with a treatment-emergent SAE: Gastrointestinal haemorrhage,"[1]; both, human, in vivo",17
same,Number of subjects with a treatment-emergent SAE: Hyperkalemia,"[1]; both, human, in vivo",19
same,Number of subjects with a treatment-emergent SAE: Pneumonia,"[1]; both, human, in vivo",87
same,Number of subjects with a treatment-emergent SAE: Syncope,"[1]; both, human, in vivo",25
same,Number of subjects with treatment-emergent AE leading to treatment discontinuation: Asthenia,"[1]; both, human, in vivo",5
same,Number of subjects with treatment-emergent AE leading to treatment discontinuation: Diarrhoea,"[1]; both, human, in vivo",4
same,Number of subjects with treatment-emergent AE leading to treatment discontinuation: Dyspnoea,"[1]; both, human, in vivo",3
same,Number of subjects with treatment-emergent AE leading to treatment discontinuation: Hyperkalaemia,"[1]; both, human, in vivo",12
same,Number of subjects with treatment-emergent AE leading to treatment discontinuation: Hypotension,"[1]; both, human, in vivo",3
same,Number of subjects with treatment-emergent AE leading to treatment discontinuation: Nausea,"[1]; both, human, in vivo",3
same,Number of subjects with treatment-emergent AE leading to treatment discontinuation: Renal impairment,"[1]; both, human, in vivo",5
same,Proportion of patients experiencing 15% decline in eGFR,"[1]; both, human, in vivo",20.6%
same,Subjects with a treatment-emergent SAE (%): Acute kidney injury,"[1]; both, human, in vivo",1.8%
same,Subjects with a treatment-emergent SAE (%): Anaemia,"[1]; both, human, in vivo",1.1%
same,Subjects with a treatment-emergent SAE (%): Angina pectoris,"[1]; both, human, in vivo",0.6%
same,Subjects with a treatment-emergent SAE (%): Angina unstable,"[1]; both, human, in vivo",1.3%
same,Subjects with a treatment-emergent SAE (%): Atrial fibrillation,"[1]; both, human, in vivo",2.6%
same,Subjects with a treatment-emergent SAE (%): Cardiac failure,"[1]; both, human, in vivo",0.6%
same,Subjects with a treatment-emergent SAE (%): Cellulitis,"[1]; both, human, in vivo",0.6%
same,Subjects with a treatment-emergent SAE (%): Chest pain,"[1]; both, human, in vivo",0.8%
same,Subjects with a treatment-emergent SAE (%): Chronic obstructive pulmonary disease,"[1]; both, human, in vivo",0.6%
same,Subjects with a treatment-emergent SAE (%): Coronary artery disease,"[1]; both, human, in vivo",0.7%
same,Subjects with a treatment-emergent SAE (%): Fall,"[1]; both, human, in vivo",0.5%
same,Subjects with a treatment-emergent SAE (%): Femur fracture,"[1]; both, human, in vivo",0.5%
same,Subjects with a treatment-emergent SAE (%): Gastrointestinal haemorrhage,"[1]; both, human, in vivo",0.6%
same,Subjects with a treatment-emergent SAE (%): Hyperkalemia,"[1]; both, human, in vivo",0.6%
same,Subjects with a treatment-emergent SAE (%): Pneumonia,"[1]; both, human, in vivo",2.9%
same,Subjects with a treatment-emergent SAE (%): Syncope,"[1]; both, human, in vivo",0.8%
same,Subjects with treatment-emergent AE leading to treatment discontinuation (%): Asthenia,"[1]; both, human, in vivo",(0.2%)
same,Subjects with treatment-emergent AE leading to treatment discontinuation (%): Diarrhoea,"[1]; both, human, in vivo",(0.1%)
same,Subjects with treatment-emergent AE leading to treatment discontinuation (%): Dyspnoea,"[1]; both, human, in vivo",(0.1%)
same,Subjects with treatment-emergent AE leading to treatment discontinuation (%): Hyperkalaemia,"[1]; both, human, in vivo",(0.4%)
same,Subjects with treatment-emergent AE leading to treatment discontinuation (%): Hypotension,"[1]; both, human, in vivo",(0.1%)
same,Subjects with treatment-emergent AE leading to treatment discontinuation (%): Nausea,"[1]; both, human, in vivo",(0.1%)
same,Subjects with treatment-emergent AE leading to treatment discontinuation (%): Renal impairment,"[1]; both, human, in vivo",(0.2%)
same,Systolic blood pressure <100 mm Hg - no.,"[1]; both, human, in vivo",538
same,"Systolic BP, mean difference","[1]; by one month, compared with placebo",−2.8 mm Hg
same,Change in bilirubin during follow-up,[1]; early after randomization,sustained reduction in bilirubin
same,"Change in KCCQ clinical summary score at 6, 9 and 12 mo (least squares mean change)",[1]; finerenone group,+8.0 ± 0.3
same,Death from any cause - %,[1]; finerenone group,(16.4%)
same,First worsening heart failure event or death from cardiovascular causes - %,[1]; finerenone group,(20.8%)
same,Improvement in NYHA class from baseline to 12 mo - %,[1]; finerenone group,(18.6%)
same,Kidney composite outcome - %,[1]; finerenone group,(2.5%)
same,Death from cardiovascular causes - %,"[1]; finerenone group N = 3,003",(8.1%)
same,Number of subjects with AE of death or leading to death: COVID-19,"[1]; n = 2,993",7
same,Number of subjects with AE of death or leading to death: COVID-19 pneumonia,"[1]; n = 2,993",9
same,Number of subjects with AE of death or leading to death: Cardiac arrest,"[1]; n = 2,993",12
same,Number of subjects with AE of death or leading to death: Cardiac failure,"[1]; n = 2,993",6
same,Number of subjects with AE of death or leading to death: Death,"[1]; n = 2,993",70
same,Number of subjects with AE of death or leading to death: Lung neoplasm malignant,"[1]; n = 2,993",7
same,Number of subjects with AE of death or leading to death: Pneumonia,"[1]; n = 2,993",27
same,Number of subjects with AE of death or leading to death: Respiratory failure,"[1]; n = 2,993",7
same,Number of subjects with AE of death or leading to death: Sepsis,"[1]; n = 2,993",19
same,Number of subjects with AE of death or leading to death: Septic shock,"[1]; n = 2,993",12
same,Number of subjects with AE of death or leading to death: Sudden cardiac death,"[1]; n = 2,993",18
same,Number of subjects with AE of death or leading to death: Sudden death,"[1]; n = 2,993",20
same,Number of subjects with a treatment-emergent SAE: COVID-19,"[1]; n = 2,993",69
same,Number of subjects with a treatment-emergent SAE: COVID-19 pneumonia,"[1]; n = 2,993",28
same,Number of subjects with a treatment-emergent SAE: Death,"[1]; n = 2,993",29
same,Number of subjects with a treatment-emergent SAE: Sepsis,"[1]; n = 2,993",25
same,Number of subjects with a treatment-emergent SAE: Sudden death,"[1]; n = 2,993",16
same,Number of subjects with a treatment-emergent SAE: Urinary tract infection,"[1]; n = 2,993",29
same,Subjects with AE of death or leading to death (%): COVID-19,"[1]; n = 2,993",(0.2%)
same,Subjects with AE of death or leading to death (%): COVID-19 pneumonia,"[1]; n = 2,993",(0.3%)
same,Subjects with AE of death or leading to death (%): Cardiac arrest,"[1]; n = 2,993",(0.4%)
same,Subjects with AE of death or leading to death (%): Cardiac failure,"[1]; n = 2,993",(0.2%)
same,Subjects with AE of death or leading to death (%): Death,"[1]; n = 2,993",(2.3%)
same,Subjects with AE of death or leading to death (%): Lung neoplasm malignant,"[1]; n = 2,993",(0.2%)
same,Subjects with AE of death or leading to death (%): Pneumonia,"[1]; n = 2,993",(0.9%)
same,Subjects with AE of death or leading to death (%): Respiratory failure,"[1]; n = 2,993",(0.2%)
same,Subjects with AE of death or leading to death (%): Sepsis,"[1]; n = 2,993",(0.6%)
same,Subjects with AE of death or leading to death (%): Septic shock,"[1]; n = 2,993",(0.4%)
same,Subjects with AE of death or leading to death (%): Sudden cardiac death,"[1]; n = 2,993",(0.6%)
same,Subjects with AE of death or leading to death (%): Sudden death,"[1]; n = 2,993",(0.7%)
same,Subjects with a treatment-emergent SAE (%): COVID-19,"[1]; n = 2,993",2.3%
same,Subjects with a treatment-emergent SAE (%): COVID-19 pneumonia,"[1]; n = 2,993",0.9%
same,Subjects with a treatment-emergent SAE (%): Death,"[1]; n = 2,993",1.0%
same,Subjects with a treatment-emergent SAE (%): Sepsis,"[1]; n = 2,993",0.8%
same,Subjects with a treatment-emergent SAE (%): Sudden death,"[1]; n = 2,993",0.5%
same,Subjects with a treatment-emergent SAE (%): Urinary tract infection,"[1]; n = 2,993",1.0%
same,Hyperkalemia leading to Death - %,[1]; through the end of study,(0%)
same,Hyperkalemia leading to Death - no.,[1]; through the end of study,0
same,Hyperkalemia leading to Death - %,[1]; treatment emergent,(0%)
same,Hyperkalemia leading to Death - no.,[1]; treatment emergent,0
same,systolic and diastolic function,[2],improvement
